Assay results published in article PMC9110316 (Computational and Structural Biotechnology Journal, 2022).
Read-outs that look alike come from different tables or passages of the source. Where a SMILES comes first, the peptide text is derived from it. [ ]: non-standard residue; d: D form. The star is where a group is joined. Nle = CCCC[CH](N)C(=O)O; Cbz = O=C(OCc1ccccc1)*

Key:
[1] = MTT cell viability assay in Huh7 cells; assay type: cell-based; conditions: human
[2] = MTT cell viability assay in A549 cells; assay type: cell-based; conditions: human
[3] = biological target: CTSL protein prepared from human liver tissue (Homo sapiens, UniProt P07711); test: biochemical; conditions: for inhibition at 100 µM: read-out: inhibition against CTSL (inhibition efficiency)
SARS-CoV-2 pseudovirus [4] = test: microbe, parasite or virus in culture; conditions: Severe acute respiratory syndrome-related coronavirus, A549, read-out: EC50, inhibition of SARS-CoV-2 pseudovirus infection
SARS-CoV-2 pseudovirus [5] = test: microbe, parasite or virus in culture; conditions: Severe acute respiratory syndrome-related coronavirus, Huh-7, read-out: EC50, inhibition of SARS-CoV-2 pseudovirus infection
SARS-CoV-2 pseudovirus [6] = tested on: SARS-CoV-2 pseudovirus

Sequence of CTSL protein prepared from human liver tissue (P07711 114-288 limits assumed): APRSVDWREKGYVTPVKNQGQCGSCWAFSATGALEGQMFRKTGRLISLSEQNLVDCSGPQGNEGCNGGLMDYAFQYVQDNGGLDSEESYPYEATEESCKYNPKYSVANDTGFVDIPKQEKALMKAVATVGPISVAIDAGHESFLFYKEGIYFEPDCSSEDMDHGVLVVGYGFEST
Sequence of CTSL protein prepared from human liver tissue (P07711 292-333 limits assumed): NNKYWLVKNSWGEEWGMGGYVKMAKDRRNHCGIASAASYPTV

SMILES	CC50 at 24 h [1] [µM]	CC50 at 24 h [2] [µM]	IC50 [3] [µM]	inhibition at 100 µM [3] [%]	EC50 (SARS-CoV-2 pseudovirus [4]) [µM]	EC50 (SARS-CoV-2 pseudovirus [5]) [µM]	SI (selectivity index, ratio of CC50 and EC50) (SARS-CoV-2 pseudovirus [6])
CC(=O)N[C@@H](CC(C)C)C(=O)N[C@@H](CC(C)C)C(=O)N[C@H](C=O)CCCNC(=N)N [leupeptin hemisulfate]	> 5000	> 5000	< 0.008	> 90	4.26	39.3	
CCCC[C@@H](C=O)NC(=O)[C@H](CC(C)C)NC(=O)OCc1ccccc1 [calpeptin]	116	595		> 90	34.8	29.8	
CCCCC(C=O)NC(=O)C(CC(C)C)NC(=O)C(CC(C)C)NC(C)=O (stereo not drawn) [Mg-101] (Ac-Leu-Leu-[Nle]-aldehyde; configuration not given here)	64.3	355	< 0.008	> 90	1.15	3.12	
CC(C)C[C@@H](C=O)NC(=O)[C@H](CC(C)C)NC(=O)[C@H](CC(C)C)NC(=O)OCc1ccccc1 [Mg-132] (Cbz-Leu-Leu-Leu-aldehyde)	100	> 200		> 90	0.159	0.212	
CCCCCCCCCC(=O)N[C@@H](Cc1c[nH]c2ccccc12)C(=O)N[C@H](CC(N)=O)C(=O)N[C@@H](CC(=O)O)C(=O)N[C@@H]1C(=O)NCC(=O)N[C@@H](CCCN)C(=O)N[C@@H](CC(=O)O)C(=O)N[C@H](C)C(=O)N[C@@H](CC(=O)O)C(=O)NCC(=O)N[C@H](CO)C(=O)N[C@@H]([C@H](C)CC(=O)O)C(=O)N[C@@H](CC(=O)c2ccccc2N)C(=O)O[C@@H]1C [daptomycin]	3570	> 5000	7.87				
CC1(C)CCC2=C(O1)c1ccccc1C(=O)C2=O [beta-lapachone]	47.4		> 100			5.09	9.31
CC(NC(=O)C(Cc1ccccc1)NC(=O)OCc1ccccc1)C(=O)CF (centres unmarked) [Z-FA-FMK]	328	> 400	0.0549	> 90	1.13	0.701	
